Where “and” joins values, the source holds several entries; their conditions need not be identical. Equal values may be shown once. Read-outs that look alike come from different tables or passages of the source.
Experiments:
[1] = tested on: S. aureus (MN8); format: cell-based, Staphylococcus aureus
[2] = tested on: TSST-1; format: cell-based, Staphylococcus aureus

CC(=O)/C=C/C1=C(C)CCCC1(C)C [Beta-ionone]
CFU/mL [1]: 1.8E + 08 CFU/mL
Optical Density [1]: 0.688
Reduction of Toxin % [2]: 100%
ng TSST-1 per OD Unit [2]: none

CC(C)=CCC/C(C)=C/CO [Geraniol]
CFU/mL [1]: 3.2E + 08 CFU/mL
Optical Density ([1]; 0.01% test compound, Table 3): 0.0569
Reduction of Toxin % [2]: 99%
ng TSST-1 per OD Unit [2]: 26 ng TSST-1 per OD Unit

C=CC(C)(O)CCC=C(C)C (centres unmarked) [Linalool]
CFU/mL [1]: 2.0E + 09 CFU/mL
Optical Density ([1]; 0.01% test compound, Table 3): 0.600
Reduction of Toxin % [2]: 88%
ng TSST-1 per OD Unit [2]: 421 ng TSST-1 per OD Unit

CC1CCC(C(C)C)C(O)C1 (centres unmarked) [Menthol]
effect on the growth of S. aureus cells [1]: minimal, if any, effect
Optical Density ([1]; 0.1% test compound (in methanol), S. aureus MN8, 24 h, 600 nm): 0.621
CFU/mL ([1]; 24 h): 6.3E + 08 CFU/mL
ng TSST-1 per OD Unit ([2]; 24 h): 33 ng TSST-1 per OD Unit

CC1(O)CCC(C(C)(C)O)CC1 (centres unmarked) [p-menthane-1,8-diol]
CFU/mL [1]: 2.0E + 09 CFU/mL
Optical Density ([1]; 0.7% test compound, Table 3): 0.620
Reduction of Toxin % [2]: 78%
ng TSST-1 per OD Unit [2]: 792 ng TSST-1 per OD Unit

myreth-3-myristate [Cetiol]
CFU/mL × 10^8 [1]: 4.2 and 5.9 and 5.0
ng TSST-1 per CFU [2]: 371 ng TSST-1 per CFU and 196 ng TSST-1 per CFU and 200 ng TSST-1 per CFU
ng TSST-1 per mL [2]: 1556 ng TSST-1 per mL and 1147 ng TSST-1 per mL and 989 ng TSST-1 per mL

Reference: patent US6596290B2 (priority 2001, dated 2003)
